Experiments:
[1] = target: T1, EcGK (Escherichia coli, UniProt P0A6V8); assay: G6PD-coupled NADPH assay at […] nm, Lineweaver-Burk; type: biochemical; settings: 25 °C, pH 7.6, 20 mM Tris-HCl, 10 mM MgCl2, co-substrate glucose, 1 mM DTT; also measured at 1 and 40 °C
T1 construct: gene glk; full length, cloned in pET-16b, expressed in E. coli BL21 (DE3), purified by ammonium sulfate and anion exchange (no tag mentioned); about 35 kDa subunit, 59 kDa homodimer by gel filtration
T1 sequence (P0A6V8 2-321): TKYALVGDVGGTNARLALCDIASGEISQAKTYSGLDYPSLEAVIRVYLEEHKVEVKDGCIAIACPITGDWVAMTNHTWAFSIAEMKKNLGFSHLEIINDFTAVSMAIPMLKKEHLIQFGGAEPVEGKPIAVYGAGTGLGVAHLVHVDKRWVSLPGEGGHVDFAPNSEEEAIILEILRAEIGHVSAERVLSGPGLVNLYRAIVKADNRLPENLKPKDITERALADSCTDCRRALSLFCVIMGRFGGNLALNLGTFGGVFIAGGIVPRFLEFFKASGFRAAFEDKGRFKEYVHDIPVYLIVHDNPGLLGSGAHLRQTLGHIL

[2] = target: T2, PsGK (Pseudoalteromonas sp. AS-131, UniProt H7CHS4, C325S); assay: G6PD-coupled NADPH assay at […] nm, Lineweaver-Burk; type: biochemical; settings: 1, 25 and 40 °C
T2 construct: gene glk; full length, cloned in pET-16b, expressed in E. coli BL21 (DE3), purified by ammonium sulfate and anion exchange (no tag mentioned); about 35 kDa subunit, 79 kDa homodimer by gel filtration
T2 sequence (H7CHS4 entry or part of it C325S): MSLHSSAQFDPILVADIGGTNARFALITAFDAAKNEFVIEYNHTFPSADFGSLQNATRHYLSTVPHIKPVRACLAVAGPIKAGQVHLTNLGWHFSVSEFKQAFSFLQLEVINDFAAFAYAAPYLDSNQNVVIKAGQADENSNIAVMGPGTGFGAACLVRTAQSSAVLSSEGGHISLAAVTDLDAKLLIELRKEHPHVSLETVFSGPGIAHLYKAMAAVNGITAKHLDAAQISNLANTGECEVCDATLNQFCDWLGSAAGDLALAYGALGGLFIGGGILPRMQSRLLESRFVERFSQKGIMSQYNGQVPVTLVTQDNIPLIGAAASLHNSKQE

[3] = target: the molecule itself; assay: SEC; gel filtration on HiLoad 16/60 Superdex 200 prep grade; molecular weights estimated and compared with about 35 kDa by SDS/PAGE; monomers to dimer
[4] = substrate: Nc1ncnc2c1ncn2[C@@H]1O[C@H](COP(=O)(O)OP(=O)(O)OP(=O)(O)O)[C@@H](O)[C@H]1O; assay: purified protein; type: biochemical, Pseudoalteromonas sp. AS-131; settings: 25 °C, pH 7.6, 20 mM Tris-HCl, 10 mM MgCl2, co-substrate glucose, 1 mM DTT, also measured at 1 and 40 °C

Question: `Nc1ncnc2c1ncn2[C@@H]1O[C@H](COP(=O)(O)OP(=O)(O)OP(=O)(O)O)[C@@H](O)[C@H]1O` [ATP] was tested. Which K m [1] did it give?
Answer: Its K m is 1.11 ± 0.08 mM.

Question: What about the K m ([2]; pH 7.6, 10 mM MgCl2, co-substrate glucose) of the same molecule?
Answer: Its K m is “the catalytic efficiency (k cat/K m) of C325S exceeded that of WT”.

Question: How did the K m ([2]; pH 7.6, 10 mM MgCl2, co-substrate ATP) turn out when `OC[C@H]1OC(O)[C@H](O)[C@@H](O)[C@@H]1O` (stereo partly drawn) [glucose] was run?
Answer: Its K m is “the catalytic efficiency (k cat/K m) of C325S exceeded that of WT”.

B1: glucokinase from Pseudoalteromonas sp. AS-131 wild-type (enzyme, UniProt H7CHS4 1-332, looked up)
chain: MSLHSSAQFDPILVADIGGTNARFALITAFDAAKNEFVIEYNHTFPSADFGSLQNATRHYLSTVPHIKPVRACLAVAGPIKAGQVHLTNLGWHFSVSEFKQAFSFLQLEVINDFAAFAYAAPYLDSNQNVVIKAGQADENSNIAVMGPGTGFGAACLVRTAQSSAVLSSEGGHISLAAVTDLDAKLLIELRKEHPHVSLETVFSGPGIAHLYKAMAAVNGITAKHLDAAQISNLANTGECEVCDATLNQFCDWLGSAAGDLALAYGALGGLFIGGGILPRMQSRLLESRFVERFSQKGIMSQYNGQVPVTLVTQDNIPLIGAAACLHNSKQE
notes: glucokinase (PsGK) of Pseudoalteromonas sp; AS-131, UniProt H7CHS4; amplified with primers that carry the start and the stop codon and cloned into pET-16b; also called PsGK; PsGK WT; source: E. coli BL21 (DE3), purified (ammonium sulfate fractionation, anion exchange HiTrap Q HP)
Question: Which results are given for B1?
Answer: stoichiometry N [3]: 2; Km [4]: 1.55 ± 0.17 mM

B2: glucokinase from Escherichia coli wild-type (enzyme, Escherichia coli K-12)
chain: T1 sequence (P0A6V8 2-321)
notes: glucokinase (EcGK) of Escherichia coli K-12, encoded by glk, UniProt P0A6V8; the gene was amplified from genomic DNA and cloned into pET-16b; also called EcGK; EcGK WT; source: E. coli BL21 (DE3), purified (ammonium sulfate fractionation, anion exchange HiTrap Q HP)
Question: With B2 as the molecule, how does the “stoichiometry N” value [3] read?
Answer: The value was 2.

From article PMC13147314 (The Febs Journal, 2025)
